Source: patent publication US20120141390A1, “Natural Preservatives and Antimicrobial Agents” (priority 2007, published 2012)

Columns and labels:
Test in all cases: Microplate antibacterial assay (optical density at 540 nm)
Assay type in all cases: cell-based
[1] = tested on: Proteus vulgaris ACM 4730; details: 37° C., 22 h; for MIC0: highest concentration with no inhibition of growth; for MIC100: lowest concentration giving 100% inhibition
Protocol: (§1) Bacterial strains and growth conditions: Test organisms used in the assay were Staphylococcus aureus strain 6571 (NCTC—National Collection of Type Cultures, Health Protection Agency Centre for Infection, London, UK), Streptococcus mutans ACM 969 and Proteus vulgaris ACM 4730, were supplied by the Australian Collection of Microorganisms (ACM), University of Queensland. The test organisms were grown for 24 h in Tryptone Soya Yeast Extract Broth (TSYEB) (Oxoid CM 129B, Basingstoke, UK), 30 g/L; yeast extract (Oxoid CM19), 6 g/L. The inoculum was quantified by measuring the optical density (absorbance) at 540 nm and adjusted to 0.5 absorbance with TSYEB.
(§2) Preparation and dilution of bacterial strains: An inoculum was prepared by serially diluting (1:1) the overnight culture of the test organisms in TSYEB broth 22 times. The dilutions from 11-22 were used on the 96 well microlitre plate. After the dilutions were made the lowest dilution was plated on Plate Count Agar (Oxoid CM0463) for all the test organisms to confirm the bacterial count.
(§3) Preparation of Polyphenol Powder from Molasses: the Polyphenol Powder from Molasses (0.1 g) was dissolved in 10 ml of TSYEB. This solution was diluted in TSYEB starting at a concentration of 1% (w/v) and diluted to 0.0005% (w/v).
(§4) Preparation of Antibiotic Solutions: the Antibiotics Penicillin G and Oxytetracyclin hydrochloride from Sigma-Aldrich (St. Louis, Mo.) were used in this study. 0.01 g each of Penicillin G and Oxytetracyclin were dissolved in 20 ml of TSYEB.
(§5) The antibiotic solutions of Penicillin G and Oxytetracyclin were diluted in TSYEB (1:1) starting at a concentration of 0.05% (w/v) and diluted to 2.44×10^−5% (w/v).
(§6) Microplate assay procedure: Flat bottom 96 well sterile microtiter plates with lid to prevent cross contamination (Sarstedt, Nümbrecht, Germany) were used for the study. Each 96 well microtiter plate supported one row of wells containing the medium alone (sterility and negative control). Three rows from the first row of wells contained 1:1 dilutions of test organisms (bacterial controls equivalent to 10^5 cfu/ml in the left most well to 10^2 cfu/ml in the right most well) and the polyphenol solution from molasses highest to the lowest concentration (1% to 0.0005 w/v). Each of the combinations of polyphenol solution and bacterial cells were done in triplicate measurements. The next three rows of wells contained the same number of bacterial dilutions but the polyphenol solution was from the lowest to the highest concentration (0.0005% to 1% w/v). Each of the combinations of polyphenol solution and bacterial cells were done in triplicate measurements. The remaining row contained the same number of bacterial dilutions with growth media and polyphenol solution and was called the positive control. Replicates (n=6) of the positive control with no polyphenol solution was run on a separate plate for test organisms. Each 300 μl well contained 50 μl of inoculum, 150 μL of polyphenol solution. Each negative or sterility control well contained 200 μl of TSYEB broth. Each positive control well contained 50 μl of inoculum, 150 μl of TSYEB broth.
(§7) Penicillin G and Oxytetracyclin hydrochloride were used as reference standards to determine the sensitivity of test organisms and to compare the antimicrobial activity of the polyphenol solution with that of the antibiotics.
(§8) Optical density (OD) was determined in a spectrophotometer Sunrise-Basic Tecan (Grödig, Austria) at 540 nm. OD was determined prior to incubation and represents the spectrophotometric reading at time zero (T0). Plates were placed in an incubator at 37° C. and incubated for 22 h. Streptococcus mutans was incubated at 37° C. for 22 and 44 h. The solutions in the plates were mixed using a multichannel pipette to prevent clumping prior to reading the OD in the spectrophotometer after 22 h (T22).
(§9) Analysis of results: The calculations for Percent Inhibition were based on the study by Casey et al. 2004; Patton et al. 2006. […]

[2] = tested on: Staphylococcus aureus strain 6571; details: 37° C., 22 h; for MIC100: lowest concentration giving 100% inhibition
Protocol: as §1, §2, §3, §4, §5, §6, §7, §8, §9

[3] = tested on: Streptococcus mutans ACM 969; details: lowest concentration giving 100% inhibition, 37° C., growth extended to 44 h
Protocol: as §1, §2, §3, §4, §5, §6, §7, §8, §9

[4] = listed as oxytetracyclin, hydrochloride

| MIC0 [1] | MIC100 [1] | MIC0 ([2]; highest concentration with no inhibition of growth) | MIC100 [2] | MIC100 [3] | MIC100 ([2]; hydrochloride) | MIC100 [2, 4] | MIC100 ([3]; hydrochloride) | MIC100 [3, 4] | SMILES |
| --- | --- | --- | --- | --- | --- | --- | --- | --- | --- |
| 4.88 × 10^−5 % w/v | 7.81 × 10^−4 % w/v | <2.44 × 10^−5 % w/v | 9.77 × 10^−5 % w/v | <2.44 × 10^−5 % w/v | – | – | – | – | CC1(C)S[C@@H]2[C@H](NC(=O)Cc3ccccc3)C(=O)N2[C@H]1C(=O)O [Penicillin G] |
| 2.44 × 10^−5 % w/v | 7.88 × 10^−4 % w/v | – | – | – | <2.44 × 10^−5 % w/v | 2.44×10^−5 % w/v | <2.44 × 10^−5 % w/v | 2.44×10^−5 % w/v | CN(C)[C@@H]1C(O)=C(C(N)=O)C(=O)[C@@]2(O)C(O)=C3C(=O)c4c(O)cccc4[C@@](C)(O)[C@H]3[C@H](O)[C@@H]12.Cl [Oxytetracylin, Oxytetracyclin hydrochloride] |
